± gives the expanded uncertainty stated by the source.
Conditions: 313.15 K; 100 kPa; Liquid; Vibrating tube method

**Q.** Which mass density does the source give for `CC[N+](CCO)(CCO)CCO.O=S(=O)([N-]S(=O)(=O)C(F)(F)F)C(F)(F)F` here?
**A.** 1516.6 ± 1.2 kg/m3

**Q.** For `CCCC[N+](CCO)(CCO)CCO.O=S(=O)([N-]S(=O)(=O)C(F)(F)F)C(F)(F)F`, which mass density is on record?
**A.** 1443.6 ± 1.1 kg/m3

**Q.** Which mass density does the source give for `CC[N+](C)(CCO)CCO.O=S(=O)([N-]S(=O)(=O)C(F)(F)F)C(F)(F)F` here?
**A.** 1501.7 ± 1.2 kg/m3

Same assay, conditions: 314.15 K; 100 kPa; Liquid; Vibrating tube method

**Q.** With `C[N+](CCO)(CCO)CCO.O=S(=O)([N-]S(=O)(=O)C(F)(F)F)C(F)(F)F` as the molecule, how does the mass density read?
**A.** 1552.4 ± 1.2 kg/m3

**Q.** With `CC[N+](CCO)(CCO)CCO.O=S(=O)([N-]S(=O)(=O)C(F)(F)F)C(F)(F)F` as the molecule, how does the mass density read?
**A.** 1515.7 ± 1.2 kg/m3

**Q.** For `CCCC[N+](CCO)(CCO)CCO.O=S(=O)([N-]S(=O)(=O)C(F)(F)F)C(F)(F)F`, which mass density is on record?
**A.** 1442.8 ± 1.1 kg/m3

**Q.** For `CC[N+](C)(CCO)CCO.O=S(=O)([N-]S(=O)(=O)C(F)(F)F)C(F)(F)F`, which mass density is on record?
**A.** 1500.8 ± 1.2 kg/m3

Same assay, conditions: 315.15 K; 100 kPa; Liquid; Vibrating tube method

**Q.** Which mass density does the source give for `C[N+](CCO)(CCO)CCO.O=S(=O)([N-]S(=O)(=O)C(F)(F)F)C(F)(F)F` here?
**A.** 1551.5 ± 1.2 kg/m3

**Q.** With `CC[N+](CCO)(CCO)CCO.O=S(=O)([N-]S(=O)(=O)C(F)(F)F)C(F)(F)F` as the molecule, how does the mass density read?
**A.** 1514.9 ± 1.2 kg/m3

**Q.** With `CCCC[N+](CCO)(CCO)CCO.O=S(=O)([N-]S(=O)(=O)C(F)(F)F)C(F)(F)F` as the molecule, how does the mass density read?
**A.** 1441.9 ± 1.1 kg/m3

**Q.** For `CC[N+](C)(CCO)CCO.O=S(=O)([N-]S(=O)(=O)C(F)(F)F)C(F)(F)F`, which mass density is on record?
**A.** 1499.9 ± 1.2 kg/m3

Same assay, conditions: 316.15 K; 100 kPa; Liquid; Vibrating tube method

**Q.** Which mass density does the source give for `C[N+](CCO)(CCO)CCO.O=S(=O)([N-]S(=O)(=O)C(F)(F)F)C(F)(F)F` here?
**A.** 1550.6 ± 1.2 kg/m3

**Q.** Which mass density does the source give for `CC[N+](CCO)(CCO)CCO.O=S(=O)([N-]S(=O)(=O)C(F)(F)F)C(F)(F)F` here?
**A.** 1514 ± 1.2 kg/m3

**Q.** With `CCCC[N+](CCO)(CCO)CCO.O=S(=O)([N-]S(=O)(=O)C(F)(F)F)C(F)(F)F` as the molecule, how does the mass density read?
**A.** 1441 ± 1.1 kg/m3

**Q.** For `CC[N+](C)(CCO)CCO.O=S(=O)([N-]S(=O)(=O)C(F)(F)F)C(F)(F)F`, which mass density is on record?
**A.** 1499 ± 1.2 kg/m3

Same assay, conditions: 317.15 K; 100 kPa; Liquid; Vibrating tube method

**Q.** Which mass density does the source give for `C[N+](CCO)(CCO)CCO.O=S(=O)([N-]S(=O)(=O)C(F)(F)F)C(F)(F)F` here?
**A.** 1549.7 ± 1.2 kg/m3

**Q.** With `CC[N+](CCO)(CCO)CCO.O=S(=O)([N-]S(=O)(=O)C(F)(F)F)C(F)(F)F` as the molecule, how does the mass density read?
**A.** 1513.1 ± 1.2 kg/m3

**Q.** Which mass density does the source give for `CCCC[N+](CCO)(CCO)CCO.O=S(=O)([N-]S(=O)(=O)C(F)(F)F)C(F)(F)F` here?
**A.** 1440.2 ± 1.1 kg/m3

**Q.** Which mass density does the source give for `CC[N+](C)(CCO)CCO.O=S(=O)([N-]S(=O)(=O)C(F)(F)F)C(F)(F)F` here?
**A.** 1498.1 ± 1.2 kg/m3

Same assay, conditions: 318.15 K; 100 kPa; Liquid; Concentric cylinders viscometry

**Q.** Which viscosity does the source give for `C[N+](CCO)(CCO)CCO.O=S(=O)([N-]S(=O)(=O)C(F)(F)F)C(F)(F)F` here?
**A.** 158.7 ± 6.8 mPa·s

**Q.** Which viscosity does the source give for `CC[N+](CCO)(CCO)CCO.O=S(=O)([N-]S(=O)(=O)C(F)(F)F)C(F)(F)F` here?
**A.** 210.5 ± 9.3 mPa·s

**Q.** Which viscosity does the source give for `CCCC[N+](CCO)(CCO)CCO.O=S(=O)([N-]S(=O)(=O)C(F)(F)F)C(F)(F)F` here?
**A.** 245.9 ± 11 mPa·s

**Q.** Which viscosity does the source give for `CC[N+](C)(CCO)CCO.O=S(=O)([N-]S(=O)(=O)C(F)(F)F)C(F)(F)F` here?
**A.** 89.9 ± 3.7 mPa·s

Same assay, conditions: 318.15 K; 100 kPa; Liquid; Frequency=0.0006 MHz; Alternating current cell with electrodes

**Q.** Which electrical conductivity does the source give for `C[N+](CCO)(CCO)CCO.O=S(=O)([N-]S(=O)(=O)C(F)(F)F)C(F)(F)F` here?
**A.** 0.117 ± 0.002 S/m

**Q.** For `CC[N+](CCO)(CCO)CCO.O=S(=O)([N-]S(=O)(=O)C(F)(F)F)C(F)(F)F`, which electrical conductivity is on record?
**A.** 0.092 ± 0.002 S/m

**Q.** Which electrical conductivity does the source give for `CCCC[N+](CCO)(CCO)CCO.O=S(=O)([N-]S(=O)(=O)C(F)(F)F)C(F)(F)F` here?
**A.** 0.062 ± 0.001 S/m

**Q.** With `CC[N+](C)(CCO)CCO.O=S(=O)([N-]S(=O)(=O)C(F)(F)F)C(F)(F)F` as the molecule, how does the electrical conductivity read?
**A.** 0.206 ± 0.004 S/m

Same assay, conditions: 318.15 K; 100 kPa; Liquid; Vibrating tube method

**Q.** Which mass density does the source give for `C[N+](CCO)(CCO)CCO.O=S(=O)([N-]S(=O)(=O)C(F)(F)F)C(F)(F)F` here?
**A.** 1548.8 ± 1.2 kg/m3

**Q.** For `CC[N+](CCO)(CCO)CCO.O=S(=O)([N-]S(=O)(=O)C(F)(F)F)C(F)(F)F`, which mass density is on record?
**A.** 1512.2 ± 1.2 kg/m3

**Q.** Which mass density does the source give for `CCCC[N+](CCO)(CCO)CCO.O=S(=O)([N-]S(=O)(=O)C(F)(F)F)C(F)(F)F` here?
**A.** 1439.3 ± 1.1 kg/m3

**Q.** With `CC[N+](C)(CCO)CCO.O=S(=O)([N-]S(=O)(=O)C(F)(F)F)C(F)(F)F` as the molecule, how does the mass density read?
**A.** 1497.2 ± 1.2 kg/m3

Same assay, conditions: 319.15 K; 100 kPa; Liquid; Vibrating tube method

**Q.** Which mass density does the source give for `C[N+](CCO)(CCO)CCO.O=S(=O)([N-]S(=O)(=O)C(F)(F)F)C(F)(F)F` here?
**A.** 1547.9 ± 1.2 kg/m3

**Q.** Which mass density does the source give for `CC[N+](CCO)(CCO)CCO.O=S(=O)([N-]S(=O)(=O)C(F)(F)F)C(F)(F)F` here?
**A.** 1511.3 ± 1.2 kg/m3

**Q.** For `CCCC[N+](CCO)(CCO)CCO.O=S(=O)([N-]S(=O)(=O)C(F)(F)F)C(F)(F)F`, which mass density is on record?
**A.** 1438.4 ± 1.1 kg/m3

**Q.** Which mass density does the source give for `CC[N+](C)(CCO)CCO.O=S(=O)([N-]S(=O)(=O)C(F)(F)F)C(F)(F)F` here?
**A.** 1496.3 ± 1.2 kg/m3

Same assay, conditions: 320.15 K; 100 kPa; Liquid; Vibrating tube method

**Q.** For `C[N+](CCO)(CCO)CCO.O=S(=O)([N-]S(=O)(=O)C(F)(F)F)C(F)(F)F`, which mass density is on record?
**A.** 1547 ± 1.2 kg/m3

**Q.** With `CC[N+](CCO)(CCO)CCO.O=S(=O)([N-]S(=O)(=O)C(F)(F)F)C(F)(F)F` as the molecule, how does the mass density read?
**A.** 1510.5 ± 1.2 kg/m3

**Q.** Which mass density does the source give for `CCCC[N+](CCO)(CCO)CCO.O=S(=O)([N-]S(=O)(=O)C(F)(F)F)C(F)(F)F` here?
**A.** 1437.6 ± 1.1 kg/m3

**Q.** Which mass density does the source give for `CC[N+](C)(CCO)CCO.O=S(=O)([N-]S(=O)(=O)C(F)(F)F)C(F)(F)F` here?
**A.** 1495.4 ± 1.2 kg/m3

Same assay, conditions: 321.15 K; 100 kPa; Liquid; Vibrating tube method

**Q.** With `C[N+](CCO)(CCO)CCO.O=S(=O)([N-]S(=O)(=O)C(F)(F)F)C(F)(F)F` as the molecule, how does the mass density read?
**A.** 1546.1 ± 1.2 kg/m3

**Q.** For `CC[N+](CCO)(CCO)CCO.O=S(=O)([N-]S(=O)(=O)C(F)(F)F)C(F)(F)F`, which mass density is on record?
**A.** 1509.6 ± 1.2 kg/m3

**Q.** For `CCCC[N+](CCO)(CCO)CCO.O=S(=O)([N-]S(=O)(=O)C(F)(F)F)C(F)(F)F`, which mass density is on record?
**A.** 1436.7 ± 1.1 kg/m3

**Q.** Which mass density does the source give for `CC[N+](C)(CCO)CCO.O=S(=O)([N-]S(=O)(=O)C(F)(F)F)C(F)(F)F` here?
**A.** 1494.6 ± 1.2 kg/m3

Same assay, conditions: 322.15 K; 100 kPa; Liquid; Vibrating tube method

**Q.** For `C[N+](CCO)(CCO)CCO.O=S(=O)([N-]S(=O)(=O)C(F)(F)F)C(F)(F)F`, which mass density is on record?
**A.** 1545.2 ± 1.2 kg/m3

**Q.** Which mass density does the source give for `CC[N+](CCO)(CCO)CCO.O=S(=O)([N-]S(=O)(=O)C(F)(F)F)C(F)(F)F` here?
**A.** 1508.7 ± 1.2 kg/m3

**Q.** With `CCCC[N+](CCO)(CCO)CCO.O=S(=O)([N-]S(=O)(=O)C(F)(F)F)C(F)(F)F` as the molecule, how does the mass density read?
**A.** 1435.8 ± 1.1 kg/m3

**Q.** For `CC[N+](C)(CCO)CCO.O=S(=O)([N-]S(=O)(=O)C(F)(F)F)C(F)(F)F`, which mass density is on record?
**A.** 1493.7 ± 1.2 kg/m3

Same assay, conditions: 323.15 K; 100 kPa; Liquid; Concentric cylinders viscometry

**Q.** Which viscosity does the source give for `C[N+](CCO)(CCO)CCO.O=S(=O)([N-]S(=O)(=O)C(F)(F)F)C(F)(F)F` here?
**A.** 122 ± 5.1 mPa·s

**Q.** For `CC[N+](CCO)(CCO)CCO.O=S(=O)([N-]S(=O)(=O)C(F)(F)F)C(F)(F)F`, which viscosity is on record?
**A.** 158.6 ± 6.8 mPa·s

**Q.** For `CCCC[N+](CCO)(CCO)CCO.O=S(=O)([N-]S(=O)(=O)C(F)(F)F)C(F)(F)F`, which viscosity is on record?
**A.** 182 ± 7.9 mPa·s

From the NIST ThermoML archive (doi:10.1021/acs.jced.9b00442)
